The subject of the data set is mouse. The experiment in a line: acute toxicity in the mouse over 7 days. Type of data set: in vivo. Conditions: i.v. On the procedure:
The acute toxicities of the antibiotics were determined in the mouse over 7 days.

This note sets out measurements from patent US4216206A (priority 1977, dated 1980).

As for Thiostrepton, the LD50 (commonly the dose at which mortality reaches 50%) is recorded as less than 100 mg/kg.
